Laboratory results as given in US20240239752A1, “BICYCLIC HETEROAROMATIC INHIBITORS OF KLK5” (BioCryst Pharmaceuticals, Inc., priority 2021, published 2024).

Target: T1, recombinant human KLK5 (Homo sapiens, UniProt Q9Y337)
T1 construct: purchased Novoprotein or R&D Systems C415 or 1108-SE
T1 sequence (Q9Y337 23-293): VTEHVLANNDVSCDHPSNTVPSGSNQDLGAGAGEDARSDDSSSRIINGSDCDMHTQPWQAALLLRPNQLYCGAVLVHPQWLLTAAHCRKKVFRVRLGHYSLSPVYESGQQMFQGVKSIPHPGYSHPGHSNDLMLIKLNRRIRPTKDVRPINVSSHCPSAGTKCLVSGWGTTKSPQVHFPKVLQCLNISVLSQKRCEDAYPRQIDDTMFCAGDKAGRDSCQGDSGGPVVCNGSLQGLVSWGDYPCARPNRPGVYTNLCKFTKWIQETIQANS
Assay: Kallikrein (KLK) 5 enzymatic assay (Boc-VPR-AMC fluorogenic substrate)
Assay type: biochemical
Details: recombinant human KLK5 0.1 μg/well, Boc-VPR-AMC 100 μM, pH 7.5, room temperature, 1% DMSO; tested a minimum of three times
In short: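 Recombinant human KLK5 (0.1 μg/well) was preincubated with compound at room temperature in 0.1 M NaH2PO4, pH 7.5, 1% DMSO, then started with 100 μM Boc-VPR-AMC. The rate was followed at 380/460 nm, and IC50 came from percent inhibition relative to enzyme alone, with at least three runs.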

SMILES | IC50
CCN1CCC2(CC1)C[C@@H](Oc1ccccc1CC(=O)O)c1cc(-c3ccc4ccnc(N)c4c3)ccc12 [Compound 436b, (R)-2-(2-((5-(1-aminoisoquinolin-7-yl)-1′-ethyl-2,3-dihydrospiro[indene-1,4′-piperidin]-3-yl)oxy)phenyl)acetic acid] | < 1 µM
Nc1nccc2ccc(-c3ccc4nn(C5CCC5)c(COc5cc(F)ccc5CC(=O)O)c4c3)cc12 [Compound 149d, 2-(2-((5-(1-aminoisoquinolin-7-yl)-2-cyclobutyl-2H-indazol-3-yl)methoxy)-4-fluorophenyl)acetic acid] | 1 to 10 µM
Nc1nccc2ccc(-c3ccc4c(c3)c(COc3ccccc3CC(=O)O)nn4C3CCC(F)(F)C3)cc12 (stereo not shown) [Compound 266b, 2-(2-((5-(1-aminoisoquinolin-7-yl)-1-(3,3-difluorocyclopentyl)-1H-indazol-3-yl)methoxy)phenyl)acetic acid] | < 1 µM
CC(C)COC(=O)N1CCC2(CC1)CC(Oc1ccccc1CC(=O)O)c1cc(-c3cccc4c(N)nccc34)ccc12 (stereo not shown) [Compound 390b, 2-(2-((5-(1-aminoisoquinolin-5-yl)-1′-(isobutoxycarbonyl)-2,3-dihydrospiro[indene-1,4′-piperidin]-3-yl)oxy)phenyl)acetic acid] | < 1 µM
COc1c(CN)cccc1-c1cc2c(COc3ccccc3CC(=O)O)cccc2o1 [Compound 300d, 2-(2-((2-(3-(aminomethyl)-2-methoxyphenyl)benzofuran-4-yl)methoxy)phenyl)acetic acid] | > 10 µM
Nc1nccc2c(-c3ccc4nn(C5CCC5)c(COc5cc(OC(F)(F)F)ccc5CC(=O)O)c4c3)cccc12 [Compound 154b, 2-(2-((5-(1-aminoisoquinolin-5-yl)-2-cyclobutyl-2H-indazol-3-yl)methoxy)-4-(trifluoromethoxy)phenyl)acetic acid] | 1 to 10 µM
Nc1nccc2c(-c3ccc4c(c3)c(COc3ccccc3CC(=O)O)nn4C3CCNC3)cccc12 (stereo not shown) [Compound 90a, 2-(2-((5-(1-aminoisoquinolin-5-yl)-1-(pyrrolidin-3-yl)-1H-indazol-3-yl)methoxy)phenyl)acetic acid] | < 1 µM
COC(=O)N1CCC2(CC1)C[C@H](Oc1ccccc1CC(=O)O)c1cc(-c3ccc4ccnc(N)c4c3)ccc12 [Compound 397b, (S)-2-(2-((5-(1-aminoisoquinolin-7-yl)-1′-(methoxycarbonyl)-2,3-dihydrospiro[indene-1,4′-piperidin]-3-yl)oxy)phenyl)acetic acid] | < 1 µM
CC(C)(C)OC(=O)NC1CC(n2nc3ccc(-c4ccc5ccnc(N)c5c4)cc3c2COc2ccccc2CC(=O)O)C1 (stereo not shown) [Compound 137b, 2-(2-((5-(1-aminoisoquinolin-7-yl)-2-(3-(tert-butoxycarbonylamino)cyclobutyl)-2H-indazol-3-yl)methoxy)phenyl)acetic acid] | 1 to 10 µM
CC(C)(C)OC(=O)N1CCC2(CC1)C[C@H](Oc1ccccc1CC(=O)O)c1cc(-c3ccc4ccnc(N)c4c3)ccc12 [Compound 393b, (S)-2-(2-((5-(1-aminoisoquinolin-7-yl)-1′-(tert-butoxycarbonyl)-2,3-dihydrospiro[indene-1,4′-piperidin]-3-yl)oxy)phenyl)acetic acid] | < 1 µM
Nc1nccc2c(-c3ccc4c(c3)c(COc3ccccc3CC(=O)O)nn4-c3ccccc3)cccc12 [Compound 202b, 2-(2-((5-(1-aminoisoquinolin-5-yl)-1-phenyl-1H-indazol-3-yl)methoxy)phenyl)acetic acid] | < 1 µM
CC(C)Oc1c(C(=N)N)cccc1-c1ccc2c(c1)c(COc1ccccc1CC(=O)O)nn2C(C)C [Compound 272f, 2-(2-((5-(3-carbamimidoyl-2-isopropoxyphenyl)-1-isopropyl-1H-indazol-3-yl)methoxy)phenyl)acetic acid] | 1 to 10 µM
Nc1nccc2c(-c3ccc4c(c3)C(Oc3ccccc3CC(=O)O)CC4)cccc12 (stereo not shown) [Compound 200b, 2-(2-((6-(1-aminoisoquinolin-5-yl)-2,3-dihydro-1H-inden-1-yl)oxy)phenyl)acetic acid] | < 1 µM
COc1ccc(O[C@@H]2CCc3ccc(-c4cccc5c(N)nccc45)cc32)c(CC(=O)O)c1 [Compound 431c, (R)-2-(2-((6-(1-aminoisoquinolin-5-yl)-2,3-dihydro-1H-inden-1-yl)oxy)-5-methoxyphenyl)acetic acid] | < 1 µM
N=C(N)c1cccc(-c2cc(OCc3ccccn3)c3occ(COc4ccccc4CC(=O)O)c3c2)c1 [Compound 227i, 2-(2-((5-(3-carbamimidoylphenyl)-7-(pyridin-2-ylmethoxy)benzofuran-3-yl)methoxy)phenyl)acetic acid] | < 1 µM
Cc1cc(-c2cccc3c(N)nccc23)cc2c1CCC2Oc1ccccc1CC(=O)O (stereo not shown) [Compound 206b, 2-(2-((6-(1-aminoisoquinolin-5-yl)-4-methyl-2,3-dihydro-1H-inden-1-yl)oxy)phenyl)acetic acid] | < 1 µM

SMILES | IC50
Nc1nccc2ccc(-c3ccc4c(c3)c(COc3ccccc3CC(=O)O)nn4C3CCCCO3)cc12 (stereo not shown) [Compound 93b, 2-(2-((5-(1-aminoisoquinolin-7-yl)-1-(tetrahydro-2H-pyran-2-yl)-1H-indazol-3-yl)methoxy)phenyl)acetic acid] | < 1 µM
CC(C)Cn1nc(COc2ccccc2CC(=O)O)c2cc(-c3cccc4c(N)nccc34)ccc21 [Compound 189b, 2-(2-((5-(1-aminoisoquinolin-5-yl)-1-isobutyl-1H-indazol-3-yl)methoxy)phenyl)acetic acid] | < 1 µM
COC(=O)N1CCC2(CC1)C[C@H](Oc1ccccc1CC(=O)O)c1cc(-c3cccc4c(N)nccc34)ccc12 [Compound 396d, (S)-2-(2-((5-(1-aminoisoquinolin-5-yl)-1′-(methoxycarbonyl)-2,3-dihydrospiro[indene-1,4′-piperidin]-3-yl)oxy)phenyl)acetic acid] | < 1 µM
CC(C)n1nc(COc2ccccc2CC(=O)O)c2cc(-c3ccc4c(N)nc(N)nc4c3)ccc21 [Compound 41c, 2-(2-((5-(2,4-diaminoquinazolin-7-yl)-1-isopropyl-1H-indazol-3-yl)methoxy)phenyl)acetic acid] | > 10 µM
CC1(C)Cc2ccc(-c3cccc4c(N)nccc34)cc2C1Oc1ccccc1CC(=O)O (stereo not shown) [Compound 437f, 2-(2-((6-(1-aminoisoquinolin-5-yl)-2,2-dimethyl-2,3-dihydro-1H-inden-1-yl)oxy)phenyl)acetic acid] | < 1 µM
Cc1cccc(OCc2nn(C3CCC3)c3ccc(-c4cccc5c(N)nccc45)cc23)c1CC(=O)O [Compound 162b, 2-(2-((5-(1-aminoisoquinolin-5-yl)-1-cyclobutyl-1H-indazol-3-yl)methoxy)-6-methylphenyl)acetic acid] | < 1 µM
CCc1cccc(OCc2nn(C3CCC3)c3ccc(-c4cccc5c(N)nccc45)cc23)c1CC(=O)O [Compound 181b, 2-(2-((5-(1-aminoisoquinolin-5-yl)-1-cyclobutyl-1H-indazol-3-yl)methoxy)-6-ethylphenyl)acetic acid] | < 1 µM
CCOC(=O)N1CCC(n2nc(COc3ccccc3CC(=O)O)c3cc(-c4cccc5c(N)nccc45)ccc32)C1 (stereo not shown) [Compound 311b, 2-(2-((5-(1-aminoisoquinolin-5-yl)-1-(1-(ethoxycarbonyl)pyrrolidin-3-yl)-1H-indazol-3-yl)methoxy)phenyl)acetic acid] | < 1 µM
Nc1nccc2c(-c3cc(-c4ccoc4)c4c(c3)c(COc3ccccc3CC(=O)O)nn4C3CCCCO3)cccc12 (stereo not shown) [Compound 106g, 2-(2-((5-(1-aminoisoquinolin-5-yl)-7-(furan-3-yl)-1-(tetrahydro-2H-pyran-2-yl)-1H-indazol-3-yl)methoxy)phenyl)acetic acid] | < 1 µM
COC(=O)N1CCC2(CC1)CC(Oc1cc(OC)ccc1CC(=O)O)c1cc(-c3ccc4ccnc(N)c4c3)ccc12 (stereo not shown) [Compound 452c, 2-(2-((5-(1-aminoisoquinolin-7-yl)-1′-(methoxycarbonyl)-2,3-dihydrospiro[indene-1,4′-piperidin]-3-yl)oxy)-4-methoxyphenyl)acetic acid] | < 1 µM
CC(C)n1nc(COc2ccccc2CC(=O)O)c2cc(-c3ccc4ccnc(O)c4c3)ccc21 [Compound 44d, 2-(2-((5-(1-hydroxyisoquinolin-7-yl)-1-isopropyl-1H-indazol-3-yl)methoxy)phenyl)acetic acid] | > 10 µM
CCC(=O)N1CCC2(CC1)CC(Oc1cccc(C)c1CC(=O)O)c1cc(-c3cccc4c(N)nccc34)ccc12 (stereo not shown) [Compound 387c, 2-(2-((5-(1-aminoisoquinolin-5-yl)-1′-propionyl-2,3-dihydrospiro[indene-1,4′-piperidin]-3-yl)oxy)-6-methylphenyl)acetic acid] | < 1 µM
COC(=O)N1CCC2(CC1)C[C@@H](Oc1ccccc1CC(=O)O)c1cc(-c3ccc4ccnc(N)c4c3)ccc12 [Compound 399b, (R)-2-(2-((5-(1-aminoisoquinolin-7-yl)-1′-(methoxycarbonyl)-2,3-dihydrospiro[indene-1,4′-piperidin]-3-yl)oxy)phenyl)acetic acid] | < 1 µM
Cc1ccc(OCc2nn(C3CCC3)c3ccc(-c4ccc5ccnc(N)c5c4)cc23)c(CC(=O)O)c1 [Compound 164c, 2-(2-((5-(1-aminoisoquinolin-7-yl)-1-cyclobutyl-1H-indazol-3-yl)methoxy)-5-methylphenyl)acetic acid] | 1 to 10 µM
Nc1nccc2c(-c3ccc4c(c3)c(COc3ccccc3CC(=O)O)nn4C3CCN(CCO)C3)cccc12 (stereo not shown) [Compound 298c, 2-(2-((5-(1-aminoisoquinolin-5-yl)-1-(1-(2-hydroxyethyl)pyrrolidin-3-yl)-1H-indazol-3-yl)methoxy)phenyl)acetic acid] | < 1 µM
